Laboratory results taken from patent US6590127B1, “Process for the preparation of pharmacologically active α-asarone from toxic β-asarone rich acorus calamus oil” (priority 2002, dated 2003).

What was measured:
[1] = Toxicity of 2,4,5-trimethoxyphenylpropane compared with β-asarone
[2] = system: mice fed with a high cholesterol diet; conditions: oral dose of 80 mg/kg; cited from earlier work
[3] = system: rats; conditions: cited from earlier work
[4] = system: mice; conditions: cited from earlier work
[5] = system: animals; conditions: cited from earlier work
[6] = system: human lymphocytes; conditions: human lymphocytes in-vitro after metabolic activation; cited from earlier work

For `CCCc1cc(OC)c(OC)cc1OC` [2,4,5-trimethoxyphenylpropane, 1-propyl-2,4,5-trimethoxybenzene], the “toxicity relative to β-asarone” value [1] was “five times less toxic”.
For `C/C=C/c1cc(OC)c(OC)cc1OC` [α-asarone, trans-2,4,5-trimethoxyphenyl-1-propene], the decrease of cholesterol [2] is listed as 49.6%, the decrease of triglycerides [2] is listed as 83.7% and the “high density lipoprotein (HDL)-cholesterol” value [2] is listed as “increased”. For the same compound, the toxicity [3] was “no toxic effect is observed” and the toxicity [4] was “no toxic effect is observed”.
For `C/C=C\c1cc(OC)c(OC)cc1OC` [β-asarone], the tumor induction ([5]; after oral administration) is given as “induce tumors in the duodenal region”, the carcinogenicity ([5]; animals) is given as “carcinogenic” and the chromosome damaging effect [6] is given as “chromosome damaging effect”.
